# According to patent US8912223B2, “Compositions and processes for preparing 5-amino or substituted amino 1,2,3-triazoles and triazoles orotate formulations” (priority 2013, dated 2014):
# Read-outs that look alike come from different tables or passages of the source.
# Tests used:
# [1] = Gastric lesions and toxicity in rodents; details: in vivo
# Description: This may be related to the absence of use of toxic ingredients such as sodium azide or potassium azide.
# [2] = Bioavailability of CTO given orally as solid in capsule or as liquid in PEG-400; CAI in plasma by HPLC/MS; assay type: in vivo, dogs; details: for Cmax / half-life: po; for Cmax: 685 mg/kg; for concentration at 1 h: measured as CAI, read-out: Plasma concentration after 1 hr
# Protocol: The bioavailability of CTO (base:acid, 0.7:1.3) was determined by administering a single dose 685 mg/kg by capsule (Group 1) or by oral gavage in PEG400 (Group 2). Two dogs (1F/1M) were used in each group. Blood samples were collected at 0, 1, 2, 4, 8, 12, 24, 48, 72, and 92 hours. CAI was measured by HPLC/MS.
# [3] = assay type: in vivo; details: dogs, PO, 175, 350, 1025 mg/kg/day, after 28 days
# [4] = tested on: HT29 human colon tumor xenografts; assay: Anticancer activity in s.c.-implanted HT29 human colon tumor xenografts; assay type: in vivo, mice; details: CTO 343 mg/kg/day, days 13-26; measured at 41 days; control 1436 mm^3; p=0.0050 vs control
# Protocol: The effect of CTO M.W. of 580.8 and CAI M.W. of 424.6+Orotic Acid M.W. of 156.1, was studied in s.c.-implanted HT29 human colon tumor xenografts in male, athymic NCr-n u/nu mice. 6 week old mice were implanted with HT29 fragments and 13 days later were sorted in […] groups of ten. For the next 14 days (13-26 days), Group 1 control (C) received the vehicle; Group 2=343 mg/kg/dose; Group 3=240 mg/kg/day CAI+103 mg/kg/day orotic acid. At 41 days, the mean tumor volume (mm^3) was measured as shown below: • Group 1 (Control)=1436 mm^3 • Group 2 (CTO343 mg/kg/day)=864 mm^3 (p=0.0050, Gr2 vs Gr 1) • Group 3 (CAI […]+Orotic Acid 103 mg/kg/day)=1268 mm^3 (p=0.2706,Gr 3 vs Gr 1). […] However, CAI+Orotic acid formulation did show some tumor inhibition.
# [5] = CTO concentration (as CAI) in brain tissue after oral dosing; assay type: in vivo, mice; details: mouse, eight hours after treatment, read-out: CAI levels in brain tissue
# Protocol: CTO was given orally (in PEG400) to six week old mice sorted in two Groups of 6. Two doses were administered-Group 1=513 mg/kg; Group 2=342 mg/kg. Eight hours after treatment with CTO, the mice were euthanized for measurement of CTO concentration (as CAI) in brain tissue.
# [6] = tested on: Dunning R-3227-AT-1 prostate cancer model; details: rats; compared with equivalent dose of L651582; U.S. Pat. No. 5,912,346; cited from earlier work
smiles,measurement,setting,value
"NC(=O)c1nnn(Cc2cc(Cl)c(C(=O)c3ccc(Cl)cc3)c(Cl)c2)c1N [CAI, 5-Amino-1-(4-(4-chlorobenzoyl)-3,5-dichlorobenzyl)-1,2,3-triazole-4-carboxamide]",gastric lesions and toxicity,[1],less gastric lesions and toxicity
"NC(=O)c1nnn(Cc2cc(Cl)c(C(=O)c3ccc(Cl)cc3)c(Cl)c2)c1N [CTO, 5-Amino-1-(4-(4-chlorobenzoyl)-3,5-dichlorobenzyl)-1,2,3-triazole-4-carboxamide, compound with orotic acid]",bioavailability,"[2]; both sexes, dog, plasma, oral gavage in PEG400, single dose 685 mg/kg, dogs, read-out: Bioavailability relative to Group 1 (capsule, 100%)",81.8%
same,AUC,"[2]; capsule, single dose 685 mg/kg, female dog",277 µg/mL
same,AUC,"[2]; capsule, single dose 685 mg/kg, male dog",326 µg/mL
same,Cmax,"[2]; female, dog, plasma, capsule, single dose 685 mg/kg, female dog",7950 ng/mL
same,Cmax,"[2]; female, dog, plasma, oral gavage in PEG400, single dose 685 mg/kg, female dog",5350 ng/mL
same,Cmax,"[2]; male, dog, plasma, capsule, single dose 685 mg/kg, male dog",5800 ng/mL
same,Cmax,"[2]; male, dog, plasma, oral gavage in PEG400, single dose 685 mg/kg, male dog",6630 ng/mL
same,concentration at 1 h,"[2]; plasma, oral, capsule, single dose 685 mg/kg, female dog",174 ng/mL
same,concentration at 1 h,"[2]; plasma, oral, capsule, single dose 685 mg/kg, male dog",155 ng/mL
same,half-life,"[2]; plasma, capsule, single dose 685 mg/kg, female dog",22.7 h
same,half-life,"[2]; plasma, capsule, single dose 685 mg/kg, male dog",18 h
same,concentration at 1 h,"[2]; plasma, oral gavage in PEG400, single dose 685 mg/kg, female dog",570 ng/mL
same,concentration at 1 h,"[2]; plasma, oral gavage in PEG400, single dose 685 mg/kg, male dog",511 ng/mL
same,deaths,[3],no deaths occurred
same,mean tumor volume,[4],864 mm^3
same,concentration at 8 h,"[5]; CTO 342 mg/kg orally in PEG400, mice",11000 ± 1700 ng/g
same,concentration at 8 h,"[5]; CTO 513 mg/kg orally in PEG400, mice",15200 ± 2370 ng/g
NC(=O)c1nnn(Cc2cc(Cl)c(C(=O)c3ccc(Cl)cc3)c(Cl)c2)c1N.O=C(O)c1cc(=O)[nH]c(=O)[nH]1 [L651582 Orotate],antitumor activity,[6],improved antitumor activity
